The source of these data is US11136329B2, “JAK inhibitors” (Vimalan Biosciences, Inc., priority 2019, dated 2021).

SMILES strings stand for the structures.

Common to all, as to assay type: biochemical
One experiment addresses JAK3 (Homo sapiens (Human), UniProt P52333). Briefly: JAK/TYK2 assay (Kinase Glo luminescence), JAK3. The conditions noted are these: 1.5 nM enzyme, 2 uM ATP, 4 uM pEY, 1 hr. The protocol: (§1) 10 mM test compound stock or 1 mM control compound stock (tofocitinib, ruxolitinib or staurosporine) in DMSO was diluted to 0.4 mM in DMSO. A 3-fold series dilution was then performed in DMSO to generate 10 different compound concentrations. The assay was carried out in 384-well white plate. 0.5 uL of 40× compound DMSO solution at different concentrations was mixed with 10 uL 2× enzyme prepared in reaction buffer (20 mM HEPES, 10 mM MgCl2, 0.01% Tween, 1 mM DTT, pH 7.5). 10 uL 2× substrate mixture prepared in reaction buffer was then added to start the reaction. A short spin was done to settle down all solutions to the bottom of the plate. Final concentrations of test compound in the reaction mixture were 10000, 3333, 1111, 370, 123, 41.2, 13.7, 4.57, 1.52and 0.51 nM. Concentrations of control compound were ten times less. Enzymatic reaction was conducted at 25° C. for 1-2 hours. 10 uL of Kinase Glo Reagents was added to stop the reaction and generate the luminescent signal which was measured using Envision. Luminescence signal was inversely related to kinase activity. […] The mixture without any compound was the positive control.
In general terms: Kinase-Glo reads ATP consumption through a luciferase reaction.

The target in another experiment is JAK1 (Homo sapiens (Human), UniProt P23458). The experiment in a line: JAK/TYK2 assay (Kinase Glo luminescence), JAK1. The conditions noted are these: 7.5 nM enzyme, 2 uM ATP, 30 uM IRS-1, 1 hr. The protocol:
as §1

A further experiment concerns the target TYK2 (Homo sapiens (Human), UniProt P29597). Briefly: JAK/TYK2 assay (Kinase Glo luminescence), TYK2. As to conditions: 9 nM enzyme, 2 uM ATP, 30 uM IRS-1, 1 hr. The protocol: as §1
The target in a further experiment is JAK2 (Homo sapiens (Human), UniProt O60674). The experiment in a line: JAK/TYK2 assay (Kinase Glo luminescence), JAK2. The conditions noted are these: 0.8 nM enzyme, 2 uM ATP, 4 uM pEY, 1 hr. The protocol: as §1
Sequence of JAK2 (O60674 whole entry, species assumed): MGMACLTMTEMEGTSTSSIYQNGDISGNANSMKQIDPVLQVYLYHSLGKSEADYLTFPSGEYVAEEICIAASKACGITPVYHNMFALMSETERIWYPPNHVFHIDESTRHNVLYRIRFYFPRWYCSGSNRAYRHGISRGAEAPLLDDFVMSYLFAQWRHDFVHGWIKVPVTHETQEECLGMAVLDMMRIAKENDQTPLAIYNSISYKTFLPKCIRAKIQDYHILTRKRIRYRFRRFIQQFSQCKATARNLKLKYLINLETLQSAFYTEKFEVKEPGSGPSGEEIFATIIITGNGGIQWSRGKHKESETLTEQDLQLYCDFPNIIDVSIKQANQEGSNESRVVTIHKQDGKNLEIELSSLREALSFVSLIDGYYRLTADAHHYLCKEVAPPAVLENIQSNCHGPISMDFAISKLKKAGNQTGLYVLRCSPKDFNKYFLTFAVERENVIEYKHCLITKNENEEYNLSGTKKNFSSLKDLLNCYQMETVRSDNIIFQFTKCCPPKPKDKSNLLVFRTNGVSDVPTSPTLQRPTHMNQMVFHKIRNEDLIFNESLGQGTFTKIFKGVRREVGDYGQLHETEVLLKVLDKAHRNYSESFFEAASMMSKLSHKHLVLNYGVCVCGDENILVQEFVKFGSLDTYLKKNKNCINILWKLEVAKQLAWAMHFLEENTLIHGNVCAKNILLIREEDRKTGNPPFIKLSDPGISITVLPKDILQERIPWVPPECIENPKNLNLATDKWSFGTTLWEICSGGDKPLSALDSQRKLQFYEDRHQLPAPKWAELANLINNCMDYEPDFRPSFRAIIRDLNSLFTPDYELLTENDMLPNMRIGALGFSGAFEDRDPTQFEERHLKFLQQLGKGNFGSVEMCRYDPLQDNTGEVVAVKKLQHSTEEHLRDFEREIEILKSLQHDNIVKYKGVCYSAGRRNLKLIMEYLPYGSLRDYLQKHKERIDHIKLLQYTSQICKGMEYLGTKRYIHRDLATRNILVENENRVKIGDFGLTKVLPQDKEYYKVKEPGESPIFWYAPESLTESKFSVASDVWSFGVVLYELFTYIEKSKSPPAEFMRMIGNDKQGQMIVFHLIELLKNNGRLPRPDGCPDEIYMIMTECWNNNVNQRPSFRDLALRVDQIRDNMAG

Sequence of JAK1 (P23458 whole entry, species assumed): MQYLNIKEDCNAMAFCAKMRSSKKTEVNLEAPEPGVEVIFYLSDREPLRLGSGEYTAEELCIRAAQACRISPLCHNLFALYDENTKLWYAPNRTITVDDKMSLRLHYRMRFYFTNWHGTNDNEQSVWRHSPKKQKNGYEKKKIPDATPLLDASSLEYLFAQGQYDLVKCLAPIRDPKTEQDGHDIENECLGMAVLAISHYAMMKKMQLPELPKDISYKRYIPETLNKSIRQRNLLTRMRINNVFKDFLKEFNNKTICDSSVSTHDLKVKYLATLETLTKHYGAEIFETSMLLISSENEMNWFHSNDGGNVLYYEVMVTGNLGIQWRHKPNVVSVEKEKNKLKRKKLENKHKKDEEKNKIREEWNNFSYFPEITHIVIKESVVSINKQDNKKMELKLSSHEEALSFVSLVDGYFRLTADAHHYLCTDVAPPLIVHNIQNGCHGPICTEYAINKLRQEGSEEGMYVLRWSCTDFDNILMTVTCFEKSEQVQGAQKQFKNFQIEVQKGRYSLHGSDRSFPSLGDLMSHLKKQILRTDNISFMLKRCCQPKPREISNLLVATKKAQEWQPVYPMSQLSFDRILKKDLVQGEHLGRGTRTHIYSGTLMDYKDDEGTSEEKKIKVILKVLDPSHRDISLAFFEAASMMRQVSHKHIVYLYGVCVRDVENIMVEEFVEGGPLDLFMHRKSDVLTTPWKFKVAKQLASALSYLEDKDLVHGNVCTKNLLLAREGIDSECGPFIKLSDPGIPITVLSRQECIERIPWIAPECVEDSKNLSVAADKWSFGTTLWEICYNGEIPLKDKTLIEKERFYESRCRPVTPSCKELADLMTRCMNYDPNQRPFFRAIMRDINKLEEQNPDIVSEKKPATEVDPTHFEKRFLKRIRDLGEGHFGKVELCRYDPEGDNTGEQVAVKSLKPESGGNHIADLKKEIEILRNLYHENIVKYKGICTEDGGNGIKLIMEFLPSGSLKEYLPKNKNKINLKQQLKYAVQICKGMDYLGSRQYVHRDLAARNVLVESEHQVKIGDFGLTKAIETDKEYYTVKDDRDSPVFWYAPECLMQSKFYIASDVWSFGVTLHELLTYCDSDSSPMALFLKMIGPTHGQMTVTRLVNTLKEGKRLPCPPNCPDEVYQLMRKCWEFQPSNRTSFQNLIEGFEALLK
Sequence of JAK3 (P52333 whole entry, species assumed): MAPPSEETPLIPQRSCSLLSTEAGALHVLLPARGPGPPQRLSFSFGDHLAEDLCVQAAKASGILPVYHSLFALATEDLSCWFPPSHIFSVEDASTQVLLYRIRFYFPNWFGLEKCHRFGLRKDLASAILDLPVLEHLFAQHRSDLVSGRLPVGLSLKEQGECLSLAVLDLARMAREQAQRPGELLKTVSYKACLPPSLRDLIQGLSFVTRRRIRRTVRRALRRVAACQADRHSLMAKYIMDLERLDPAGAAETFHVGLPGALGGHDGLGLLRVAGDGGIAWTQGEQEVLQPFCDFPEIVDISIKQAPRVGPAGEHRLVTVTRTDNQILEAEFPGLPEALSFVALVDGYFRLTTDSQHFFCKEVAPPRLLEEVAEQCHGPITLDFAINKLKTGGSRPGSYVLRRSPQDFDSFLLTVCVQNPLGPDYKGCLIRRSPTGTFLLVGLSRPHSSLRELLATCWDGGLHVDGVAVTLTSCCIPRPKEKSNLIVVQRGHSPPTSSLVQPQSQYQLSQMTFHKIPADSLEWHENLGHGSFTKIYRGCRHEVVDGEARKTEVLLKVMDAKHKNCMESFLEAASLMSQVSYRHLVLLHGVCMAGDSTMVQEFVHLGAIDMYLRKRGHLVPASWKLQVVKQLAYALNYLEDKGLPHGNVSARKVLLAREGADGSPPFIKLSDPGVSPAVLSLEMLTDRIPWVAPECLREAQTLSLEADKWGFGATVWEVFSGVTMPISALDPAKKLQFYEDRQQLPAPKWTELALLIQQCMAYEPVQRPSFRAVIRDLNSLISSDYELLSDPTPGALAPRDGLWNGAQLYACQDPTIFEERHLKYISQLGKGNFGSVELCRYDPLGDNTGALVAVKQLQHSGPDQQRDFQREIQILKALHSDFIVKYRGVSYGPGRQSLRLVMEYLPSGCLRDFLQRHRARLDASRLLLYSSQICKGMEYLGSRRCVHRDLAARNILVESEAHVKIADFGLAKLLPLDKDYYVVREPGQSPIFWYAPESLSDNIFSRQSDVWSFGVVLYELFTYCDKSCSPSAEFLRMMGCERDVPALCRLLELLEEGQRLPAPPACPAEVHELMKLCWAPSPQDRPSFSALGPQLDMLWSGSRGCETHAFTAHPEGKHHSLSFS
Sequence of TYK2 (P29597 whole entry, species assumed): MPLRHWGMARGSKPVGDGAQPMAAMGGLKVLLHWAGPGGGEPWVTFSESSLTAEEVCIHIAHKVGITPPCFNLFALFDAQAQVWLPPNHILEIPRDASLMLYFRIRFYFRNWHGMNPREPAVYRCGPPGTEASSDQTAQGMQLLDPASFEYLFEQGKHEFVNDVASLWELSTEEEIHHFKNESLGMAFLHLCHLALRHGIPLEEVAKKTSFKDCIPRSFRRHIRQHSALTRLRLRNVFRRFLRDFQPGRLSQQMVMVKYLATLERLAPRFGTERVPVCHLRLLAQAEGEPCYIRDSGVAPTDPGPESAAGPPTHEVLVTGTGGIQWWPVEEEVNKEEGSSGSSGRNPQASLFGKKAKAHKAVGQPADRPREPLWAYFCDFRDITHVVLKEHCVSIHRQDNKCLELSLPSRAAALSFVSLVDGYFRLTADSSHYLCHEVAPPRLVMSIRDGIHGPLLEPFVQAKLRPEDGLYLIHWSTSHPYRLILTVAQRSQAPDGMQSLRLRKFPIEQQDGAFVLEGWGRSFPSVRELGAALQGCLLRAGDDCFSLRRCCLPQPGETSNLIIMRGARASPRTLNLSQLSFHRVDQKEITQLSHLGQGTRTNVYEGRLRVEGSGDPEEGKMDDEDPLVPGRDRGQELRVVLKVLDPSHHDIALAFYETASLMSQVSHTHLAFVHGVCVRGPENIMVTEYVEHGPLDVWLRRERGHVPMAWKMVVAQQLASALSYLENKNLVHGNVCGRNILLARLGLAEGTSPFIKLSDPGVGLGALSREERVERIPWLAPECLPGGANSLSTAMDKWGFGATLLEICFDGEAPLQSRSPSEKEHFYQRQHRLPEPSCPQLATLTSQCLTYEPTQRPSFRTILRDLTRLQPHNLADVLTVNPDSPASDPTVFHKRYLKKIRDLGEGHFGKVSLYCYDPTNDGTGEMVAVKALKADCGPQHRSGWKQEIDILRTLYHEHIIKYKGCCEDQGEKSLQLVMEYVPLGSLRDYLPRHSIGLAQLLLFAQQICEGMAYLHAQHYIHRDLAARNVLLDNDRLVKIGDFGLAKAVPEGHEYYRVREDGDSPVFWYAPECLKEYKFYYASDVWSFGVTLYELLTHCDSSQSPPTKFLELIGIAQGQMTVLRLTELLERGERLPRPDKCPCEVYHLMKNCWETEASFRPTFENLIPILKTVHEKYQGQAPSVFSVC

In the case of `CCOC(=O)Cn1cc(Nc2ncc3ccn(CC(CC)CC)c3n2)cn1` [Compound 8, ethyl 2-(4-((7-(2-ethylbutyl)-7H-pyrrolo[2,3-d]pyrimidin-2-yl)amino)-1H-pyrazol-1-yl)acetate], the IC50 against JAK3, at JAK1, against TYK2 and against JAK2 was below 100 nM in each case.

As to `CCC(CC)Cn1ccc2cnc(Nc3cnn(CC(=O)O)c3)nc21` [Compound 9, 2-(4-((7-(2-ethylbutyl)-7H-pyrrolo[2,3-d]pyrimidin-2-yl)amino)-1H-pyrazol-1-yl)acetic acid], the IC50 against JAK3, against JAK1, against TYK2 and against JAK2 was below 100 nM each time.

Consider `CCOC(=O)Cn1cc(Nc2ncc3ccn(Cc4ccsc4)c3n2)cn1` [Compound 10, ethyl 2-(4-((7-(thiophen-3-ylmethyl)-7H-pyrrolo[2,3-d]pyrimidin-2-yl)amino)-1H-pyrazol-1-yl)acetate], for which the IC50 at JAK3, at JAK1, against TYK2 and against JAK2 was below 100 nM throughout.

Regarding `O=C(O)Cn1cc(Nc2ncc3ccn(Cc4ccsc4)c3n2)cn1` [Compound 11, 2-(4-((7-(thiophen-3-ylmethyl)-7H-pyrrolo[2,3-d]pyrimidin-2-yl)amino)-1H-pyrazol-1-yl)acetic acid], the IC50 (as a rule, the concentration that inhibits the measured activity by half) was below 100 nM on JAK3, 100 to 1000 nM against JAK1, below 100 nM against TYK2 and below 100 nM on JAK2.

For `CCOC(=O)c1ccc(Nc2ncc3ccn(Cc4ccsc4)c3n2)cc1` [Compound 12, ethyl 4-((7-(thiophen-3-ylmethyl)-7H-pyrrolo[2,3-d]pyrimidin-2-yl)amino)benzoate], the IC50 on JAK3 is 100 to 1000 nM.

`CCOC(=O)Cn1cc(Nc2ncc3ccn(CC4CCCCC4)c3n2)cn1` [Compound 13, ethyl 2-(4-((7-(cyclohexylmethyl)-7H-pyrrolo[2,3-d]pyrimidin-2-yl)amino)-1H-pyrazol-1-yl)acetate]: the IC50 at JAK3, on JAK1, at TYK2 and at JAK2 was below 100 nM throughout.

With `CCOC(=O)Cn1cc(Nc2ncc3ccn(CC4CCC4)c3n2)cn1` [Compound 14, ethyl 2-(4-((7-(cyclobutylmethyl)-7H-pyrrolo[2,3-d]pyrimidin-2-yl)amino)-1H-pyrazol-1-yl)acetate], the IC50 against JAK3 is below 100 nM.

As for `O=C(O)Cn1cc(Nc2ncc3ccn(CC4CCCCC4)c3n2)cn1` [Compound 15, 2-(4-((7-(cyclohexylmethyl)-7H-pyrrolo[2,3-d]pyrimidin-2-yl)amino)-1H-pyrazol-1-yl)acetic acid], the IC50 at JAK3, against JAK1, against TYK2 and against JAK2 was below 100 nM throughout.

In the case of `CCOC(=O)CCn1cc(Nc2ncc3ccn(Cc4ccsc4)c3n2)cn1` [Compound 16, ethyl 3-(4-((7-(thiophen-3-ylmethyl)-7H-pyrrolo[2,3-d]pyrimidin-2-yl)amino)-1H-pyrazol-1-yl)propanoate], the half-inhibitory concentration (IC50) was below 100 nM against JAK3, 100 to 1000 nM against JAK1, below 100 nM against TYK2 and below 100 nM at JAK2.

As for `CCOC(=O)Cn1cc(Nc2ncc3ccn(CC4CCCC4)c3n2)cn1` [Compound 17, ethyl 2-(4-((7-(cyclopentylmethyl)-7H-pyrrolo[2,3-d]pyrimidin-2-yl)amino)-1H-pyrazol-1-yl)acetate], the half-maximal inhibitory concentration (IC50) against JAK3, at JAK1, against TYK2 and against JAK2 was below 100 nM each time.

`CCOC(=O)Cn1cc(Nc2ncc3ccn(CCC4CCCCC4)c3n2)cn1` [Compound 18, ethyl 2-(4-((7-(2-cyclohexylethyl)-7H-pyrrolo[2,3-d]pyrimidin-2-yl)amino)-1H-pyrazol-1-yl)acetate]: the IC50 against JAK3 was below 100 nM; against JAK1, above 10000 nM; against TYK2, below 100 nM; against JAK2 it was 100 to 1000 nM.

For the compound `O=C(O)CCn1cc(Nc2ncc3ccn(Cc4ccsc4)c3n2)cn1` [Compound 19, 3-(4-((7-(thiophen-3-ylmethyl)-7H-pyrrolo[2,3-d]pyrimidin-2-yl)amino)-1H-pyrazol-1-yl)propanoic acid], the IC50 at JAK3, on JAK1, at TYK2 and against JAK2 was below 100 nM throughout.

Regarding `CCOC(=O)Cn1cc(Nc2ncc3ccn(CC(C)(C)C)c3n2)cn1` [Compound 20, ethyl 2-(4-((7-neopentyl-7H-pyrrolo[2,3-d]pyrimidin-2-yl)amino)-1H-pyrazol-1-yl)acetate], the IC50 is below 100 nM at JAK3, 100 to 1000 nM on JAK1, below 100 nM at TYK2 and 100 to 1000 nM on JAK2.

As for `CCOC(=O)Cn1cc(Nc2ncc3ccn(CCC(C)C)c3n2)cn1` [Compound 21, ethyl 2-(4-((7-isopentyl-7H-pyrrolo[2,3-d]pyrimidin-2-yl)amino)-1H-pyrazol-1-yl)acetate], the IC50 at JAK3, against JAK1, at TYK2 and against JAK2 was below 100 nM throughout.

For `CCOC(=O)Cn1cc(Nc2ncc3ccn(CC=C(C)C)c3n2)cn1` [Compound 22, ethyl 2-(4-((7-(3-methylbut-2-en-1-yl)-7H-pyrrolo[2,3-d]pyrimidin-2-yl)amino)-1H-pyrazol-1-yl)acetate], the half-maximal inhibitory concentration (IC50) is below 100 nM on JAK3, 100 to 1000 nM at JAK1, below 100 nM against TYK2 and below 100 nM at JAK2.

On to `CC#CCn1ccc2cnc(Nc3cnn(CC(=O)OCC)c3)nc21` [Compound 23, ethyl 2-(4-((7-(but-2-yn-1-yl)-7H-pyrrolo[2,3-d]pyrimidin-2-yl)amino)-1H-pyrazol-1-yl)acetate], for which the half-maximal inhibitory concentration (IC50) against JAK3 is below 100 nM; against JAK1, 100 to 1000 nM; against TYK2, 100 to 1000 nM; against JAK2, 100 to 1000 nM.

Turning to `CCOC(=O)Cn1cc(Nc2ncc3ccn(CCC#N)c3n2)cn1` [Compound 24, ethyl 2-(4-((7-(2-cyanoethyl)-7H-pyrrolo[2,3-d]pyrimidin-2-yl)amino)-1H-pyrazol-1-yl)acetate], the half-inhibitory concentration (IC50) lay in the range of 100 to 1000 nM at JAK3, 1000 to 10000 nM at JAK1, 100 to 1000 nM at TYK2 and 100 to 1000 nM against JAK2.

`CCOC(=O)Cn1cc(Nc2ncc3ccn(CC4CC4)c3n2)cn1` [Compound 25, ethyl 2-(4-((7-(cyclopropylmethyl)-7H-pyrrolo[2,3-d]pyrimidin-2-yl)amino)-1H-pyrazol-1-yl)acetate] yielded an IC50 against JAK3 below 100 nM.

As for `CCOC(=O)c1nc(Cn2ccc3cnc(Nc4cnn(C)c4)nc32)cs1` [Compound 56], the IC50 against JAK3, against JAK1 and at JAK2 was 1000 to 10000 nM each time.

In the case of `CCOC(=O)Cn1ccc2cnc(Nc3cnn(C)c3)nc21` [Compound 57, ethyl 2-(2-((1-methyl-1H-pyrazol-4-yl)amino)-7H-pyrrolo[2,3-d]pyrimidin-7-yl)acetate], the IC50 against JAK3 was 1000 to 10000 nM; against JAK1, 1000 to 10000 nM; at JAK2 it was 100 to 1000 nM.

In the case of `CCOC(=O)c1ccc(Cn2ccc3cnc(Nc4cnn(C)c4)nc32)s1` [Compound 58, ethyl 5-((2-((1-methyl-1H-pyrazol-4-yl)amino)-7H-pyrrolo[2,3-d]pyrimidin-7-yl)methyl)thiophene-2-carboxylate], the half-inhibitory concentration (IC50) against JAK3 lay in the range of 1000 to 10000 nM.

Regarding `CCOC(=O)Cn1cc(Nc2ncc3c(Cl)cn(CC4CCCCC4)c3n2)cn1` [Compound 60, ethyl 2-(4-((5-chloro-7-(cyclohexylmethyl)-7H-pyrrolo[2,3-d]pyrimidin-2-yl)amino)-1H-pyrazol-1-yl)acetate], at JAK3, the 50% inhibitory concentration (IC50) is below 100 nM.

As for `C=CC(=O)Nc1cccc(Cn2ccc3cnc(Nc4cnn(CC(=O)OCC)c4)nc32)c1` [Compound 95, ethyl 2-(4-((7-(3-acrylamidobenzyl)-7H-pyrrolo[2,3-d]pyrimidin-2-yl)amino)-1H-pyrazol-1-yl)acetate], the IC50 on JAK3, against JAK1 and against JAK2 was 100 to 1000 nM in each case.

For the compound `CCOC(=O)Cn1cc(Nc2ncc3ccn(C[C@H]4CC[C@H](NC)CC4)c3n2)cn1` [Compound 123], the 50% inhibitory concentration (IC50) against JAK1 is 100 to 1000 nM; at TYK2 it was below 100 nM; at JAK2, below 100 nM.

On to `CCOC(=O)Cn1cc(Nc2ncc3ccn(CC4CCS(=O)(=O)CC4)c3n2)cn1` [Compound 125, ethyl 2-(4-((7-((1,1-dioxidotetrahydro-2H-thiopyran-4-yl)methyl)-7H-pyrrolo[2,3-d]pyrimidin-2-yl)amino)-1H-pyrazol-1-yl)acetate], for which the half-inhibitory concentration (IC50) against JAK1 lay in the range of 1000 to 10000 nM; against TYK2 it was 100 to 1000 nM; on JAK2 it was 1000 to 10000 nM.

Regarding `CCOC(=O)Cn1cc(Nc2ncc3ccn(CC4CCSCC4)c3n2)cn1` [Compound 126, ethyl 2-(4-((7-((tetrahydro-2H-thiopyran-4-yl)methyl)-7H-pyrrolo[2,3-d]pyrimidin-2-yl)amino)-1H-pyrazol-1-yl)acetate], the half-inhibitory concentration (IC50) at JAK1 is 100 to 1000 nM; against TYK2 it was below 100 nM; against JAK2, below 100 nM.
